{
  "source": "patent US8445207B2",
  "about": "“Genes based on thalidomide, valproic acid and methotrexate treatment for screening of drug inducing teratogenicity and screening method using thereof” (priority 2009, dated 2013)",
  "system": "JEG-3 (human placental choriocarcinoma cell line)",
  "assay": "Oligo microarray gene expression in drug-treated JEG-3 (Cy5 treated / Cy3 control)",
  "format": "cell-based",
  "method": "Thalidomide, valproic acid, and methotrexate were treated to human placental choriocarcinoma cell line at the concentrations determined above (Inhibition concentration: the concentration that can kill approximately 30% of the total cells, that is the concentration of 70% viability, IC30). mRNA was extracted from the drug treated cell line, followed by synthesis of cDNA which was labeled with Cy5. The non-treated control was labeled with Cy3. The fluorescence labeled cDNA was hybridized with 41K (thalidomide), 44K (valproic acid, methotrexate) human whole genome oligomicroarray chips (Agilent, USA), followed by fluorescent image scanning to analyze gene expression patterns (see FIG. 4). Volcano Plot of each substance was also attached. Y axis indicates probability (generally converted by −log 10). X axis indicates differential expression, which is presented by log-ratio.\nTotal RNA was separated from the treated cell by using trizol reagent (Invitrogen Life Technologies, USA) according to the manufacture's instructions, followed by purification using RNeasy mini kit (Qiagen, USA). Genomic DNA was eliminated during RNA purification using RNase-free DNase set (Qiagen, USA).\n30 μg of the total RNA obtained above and 2 μg (1 μg/μl) of oligo (dT) primer were mixed, followed by reaction at 65° C. for 10 minutes. Annealing was performed in ice right after the reaction. Reagents were prepared as shown in Table 1 for reverse transcription of the annealed RNA.\nThe total RNA separated from the control group JEG-3 cells was labeled with Cy3-dUTP (green) and the total RNA separated from the experiment group JEG-3 cells treated with thalidomide, valproic acid and methotrexate was labeled with Cy5-dUTP (red). At this time, the two samples were mixed and purified by Microcon YM-30 column (Millipore, USA).\nHybridization and washing were performed by the manufacturer's (GenoCheck, Korea) instructions. Particularly, hybridization was performed in a 62° C. oven for 12 hours. As a DNA microarray chip, 44 k whole human genome oligo microarray (Agilent, USA) was used. After washing (2 minutes with 2×SSC/0.1% SDS, three minutes with 1×SSC, 2 minutes with 0.2×SSC), the slide was dried by centrifugation at 800 rpm for 3 minutes.\nHybridization image on the slide was scanned with Genepix 4000B (Axon Instruments, USA). Fluorescence image of the chip on which non-hybridized genes had been washed out was obtained by using laser fluorescence scanner. Green fluorescence image indicates the activity of gene specifically expressed in the control group and red fluorescence image indicates the activity of gene specifically expressed in the experimental group. […] Scanned image was analyzed by using GenePix 4.1 software (Axon Instruments, USA) to calculate gene expression rate.",
  "data": [
    {"smiles": "CN(Cc1cnc2nc(N)nc(N)c2n1)c1ccc(C(=O)N[C@@H](CCC(=O)O)C(=O)O)cc1", "note": "[MTX, methotrexate]", "values": [
      {"measurement": "cDNA microarray (Cy3/Cy5 ratio), KIAA0310", "setting": "GenBank AB002308", "value": 2.29},
      {"measurement": "cDNA microarray (Cy3/Cy5 ratio), ATP10B", "setting": "GenBank AB018258", "value": 4.95},
      {"measurement": "cDNA microarray (Cy3/Cy5 ratio), TTF2", "setting": "GenBank AB209845", "value": 1.94},
      {"measurement": "cDNA microarray (Cy3/Cy5 ratio), TncRNA", "setting": "GenBank AF001893", "value": 2.11},
      {"measurement": "cDNA microarray (Cy3/Cy5 ratio), C4orf19", "setting": "GenBank AK001879", "value": 4.69},
      {"measurement": "cDNA microarray (Cy3/Cy5 ratio), CYP19A1", "setting": "GenBank AK023571", "value": 2.72},
      {"measurement": "cDNA microarray (Cy3/Cy5 ratio), SLC40A1", "setting": "GenBank AK023574", "value": 3.06},
      {"measurement": "cDNA microarray (Cy3/Cy5 ratio), ABTB2", "setting": "GenBank AK095632", "value": 4.65},
      {"measurement": "cDNA microarray (Cy3/Cy5 ratio), TUBB3", "setting": "GenBank AK122757", "value": 7.85},
      {"measurement": "cDNA microarray (Cy3/Cy5 ratio), MGC27016", "setting": "GenBank AK125877", "value": 1.52},
      {"measurement": "cDNA microarray (Cy3/Cy5 ratio), GLCCI1", "setting": "GenBank AK126731", "value": 2.84},
      {"measurement": "cDNA microarray (Cy3/Cy5 ratio), TFCP2L4", "setting": "GenBank BC036890", "value": 4.11},
      {"measurement": "cDNA microarray (Cy3/Cy5 ratio), RGS2", "setting": "GenBank BC042755", "value": 9.24},
      {"measurement": "cDNA microarray (Cy3/Cy5 ratio), SIAT7A", "setting": "GenBank BC063830", "value": 15.01},
      {"measurement": "cDNA microarray (Cy3/Cy5 ratio), B7-H4", "setting": "GenBank BX648021", "value": 0.27},
      {"measurement": "cDNA microarray (Cy3/Cy5 ratio), COBLL1", "setting": "GenBank BX649112", "value": 4.89},
      {"measurement": "cDNA microarray (Cy3/Cy5 ratio), CGA", "setting": "GenBank NM_000735", "value": 8.07},
      {"measurement": "cDNA microarray (Cy3/Cy5 ratio), PARP1", "setting": "GenBank NM_001618", "value": 0.6},
      {"measurement": "cDNA microarray (Cy3/Cy5 ratio), SERPINB9", "setting": "GenBank NM_004155", "value": 4.04},
      {"measurement": "cDNA microarray (Cy3/Cy5 ratio), ST8SIA4", "setting": "GenBank NM_005668", "value": 1.82},
      {"measurement": "cDNA microarray (Cy5 treated / Cy3 control ratio), ABL1", "setting": "GenBank NM_007313", "value": 0.49},
      {"measurement": "cDNA microarray (Cy3/Cy5 ratio), GRLF1", "setting": "GenBank NM_024342", "value": 0.29},
      {"measurement": "cDNA microarray (Cy3/Cy5 ratio), LGP1", "setting": "GenBank NM_032484", "value": 0.49},
      {"measurement": "cDNA microarray (Cy3/Cy5 ratio), NCOA3", "setting": "GenBank NM_181659", "value": 2.12},
      {"measurement": "cDNA microarray (Cy3/Cy5 ratio), SR140", "setting": "GenBank XM_031553", "value": 0.66},
      {"measurement": "cDNA microarray (Cy3/Cy5 ratio), SLC7A8", "setting": "GenBank Y18483", "value": 3.76},
      {"measurement": "Ratio of intermediate value, NLGN1", "setting": "Genbank AB028993, drug at IC30", "value": 0.25},
      {"measurement": "Ratio of intermediate value, VARS2L", "setting": "Genbank AB067472, drug at IC30", "value": 0.46},
      {"measurement": "Ratio of intermediate value, PPAT", "setting": "Genbank AB209246, drug at IC30", "value": 0.44},
      {"measurement": "Ratio of intermediate value, SEMA3B", "setting": "Genbank AB209322, drug at IC30", "value": 0.48},
      {"measurement": "Ratio of intermediate value, SCLY", "setting": "Genbank AB209458, drug at IC30", "value": 0.41},
      {"measurement": "Ratio of intermediate value, C8orf1", "setting": "Genbank AF061326, drug at IC30", "value": 0.46},
      {"measurement": "Ratio of intermediate value, KUB3", "setting": "Genbank AF078164, drug at IC30", "value": 0.45},
      {"measurement": "Ratio of intermediate value, GTF2H2", "setting": "Genbank AF078847, drug at IC30", "value": 0.44},
      {"measurement": "Ratio of intermediate value, PARD3", "setting": "Genbank AF196185, drug at IC30", "value": 0.28},
      {"measurement": "Ratio of intermediate value, Homo sapiens cDNA FLJ12651 fis, clone NT2RM4002062", "setting": "Genbank AK022713, drug at IC30", "value": 0.21},
      {"measurement": "Ratio of intermediate value, BCAT2", "setting": "Genbank AK023909, NM_001190, drug at IC30", "value": 0.35},
      {"measurement": "Ratio of intermediate value, ASS", "setting": "Genbank AK027126, drug at IC30", "value": 0.19},
      {"measurement": "Ratio of intermediate value, SHMT2", "setting": "Genbank AK055053, drug at IC30", "value": 0.42},
      {"measurement": "Ratio of intermediate value, FLJ23441", "setting": "Genbank AK056980, drug at IC30", "value": 0.41},
      {"measurement": "Ratio of intermediate value, RUVBL2", "setting": "Genbank AK057498, drug at IC30", "value": 0.42},
      {"measurement": "Ratio of intermediate value, ERCC2", "setting": "Genbank AK092872, drug at IC30", "value": 0.40},
      {"measurement": "Ratio of intermediate value, PHGDH", "setting": "Genbank AK093306, drug at IC30", "value": 0.16},
      {"measurement": "Ratio of intermediate value, GLUD1", "setting": "Genbank AK122685, drug at IC30", "value": 0.34},
      {"measurement": "Ratio of intermediate value, HMGB1", "setting": "Genbank AK122825, drug at IC30", "value": 0.37},
      {"measurement": "Ratio of intermediate value, YARS", "setting": "Genbank AK125213, drug at IC30", "value": 0.38},
      {"measurement": "Ratio of intermediate value, FANCF", "setting": "Genbank BC005077, NM_022725, drug at IC30", "value": 0.40},
      {"measurement": "Ratio of intermediate value, C9orf103", "setting": "Genbank BC036421, drug at IC30", "value": 0.38},
      {"measurement": "Ratio of intermediate value, CAD", "setting": "Genbank BC065510, drug at IC30", "value": 0.40},
      {"measurement": "Ratio of intermediate value, GRLF1", "setting": "Genbank BI494022, NM_024342, drug at IC30", "value": 0.29},
      {"measurement": "Ratio of intermediate value, CIB1", "setting": "Genbank BM467105, drug at IC30", "value": 0.44},
      {"measurement": "Ratio of intermediate value, RAD51L1", "setting": "Genbank BX248766, drug at IC30", "value": 0.43},
      {"measurement": "Ratio of intermediate value, NBS1", "setting": "Genbank BX640816, drug at IC30", "value": 0.31},
      {"measurement": "Ratio of intermediate value, B7-H4", "setting": "Genbank BX648021, drug at IC30", "value": 0.27},
      {"measurement": "Ratio of intermediate value, APEX1", "setting": "Genbank CR611116, drug at IC30", "value": 0.33},
      {"measurement": "Ratio of intermediate value, GNAO1", "setting": "Genbank CR936770, drug at IC30", "value": 0.49},
      {"measurement": "Ratio of intermediate value, DCLRE1A", "setting": "Genbank D42045, drug at IC30", "value": 0.43},
      {"measurement": "Ratio of intermediate value, CBS", "setting": "Genbank L00972, drug at IC30", "value": 0.47},
      {"measurement": "Ratio of intermediate value, ATM", "setting": "Genbank NM_000051, drug at IC30", "value": 0.48}
    ]}
  ]
}
